Assay results as given in article PMC8070144, “The YfkO Nitroreductase from Bacillus Licheniformis on Gold-Coated Superparamagnetic Nanoparticles: Towards a Novel Directed Enzyme Prodrug Therapy Approach” (Pharmaceutics, 2021).

Experiments:
NfnB-cys [1] = target: T1, NfnB-cys (Escherichia coli, UniProt P38489); assay: UV-Vis spectra with time, NADH oxidation at […] nm; type: biochemical; settings: free enzyme; CB1954 100 µM; 50 mM phosphate pH 7.2; methods print NADPH, results print NADH
T1 construct: gene nfsB; recombinant, pET28a(+) in E. coli Rosetta BL21(DE3) (printed B21 DE3); N-terminal Cys tag and His tag kept; Ni IMAC, FMN-saturated, PD10 desalted

YfkO-cys = system: T2, YfkO-cys; assay: absorbance at […] nm, hydroxylamine product formation, plate reader; type: biochemical, Bacillus licheniformis; settings: free enzyme; NADH 400 µM; 50 mM phosphate pH 7.2; 37 °C; CB1954 0.1-10 mM
T2 construct: recombinant, pET28a(+) in E. coli Rosetta BL21(DE3) (printed B21 DE3); N-terminal Cys tag and His tag kept; Ni IMAC, FMN-saturated, PD10 desalted

NfnB-cys [2] = target: T1, NfnB-cys; assay: UV-Vis spectra with time, product at […] nm; type: biochemical; settings: free enzyme; CB1954 100 µM; 50 mM phosphate pH 7.2; cofactor NADH in results (NADPH 300 µM in methods)

T1 sequence (P38489 whole entry): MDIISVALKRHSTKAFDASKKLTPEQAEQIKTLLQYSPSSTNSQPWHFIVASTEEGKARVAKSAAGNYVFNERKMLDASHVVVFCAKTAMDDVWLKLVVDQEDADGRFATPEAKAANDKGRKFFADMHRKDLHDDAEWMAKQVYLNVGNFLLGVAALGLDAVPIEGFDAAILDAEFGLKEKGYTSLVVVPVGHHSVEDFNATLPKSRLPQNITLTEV

SMILES | UV-Vis spectra with time, NADH oxidation at 340 nm (NfnB-cys [1]) | Km (YfkO-cys) | UV-Vis spectra with time, product at 420 nm (NfnB-cys [2])
NC(=O)C1=CN([C@@H]2O[C@H](COP(=O)(O)OP(=O)(O)OC[C@H]3O[C@@H](n4cnc5c(N)ncnc54)[C@H](O)[C@@H]3O)[C@@H](O)[C@H]2O)C=CC1 [NADH] | scans obtained for NfnB-cys, free and immobilised, were almost identical to these | – | –
NC(=O)c1cc(N2CC2)c([N+](=O)[O-])cc1[N+](=O)[O-] [compound 1, 5-(aziridin-1-yl)-2,4-dinitrobenzamide] | – | 830 ± 250 µM | scans obtained for NfnB-cys, free and immobilised, were almost identical to these
